Assay results as given in patent US8202893B2, “Cannabinergic lipid ligands” (University of Connecticut, priority 2004, dated 2012).
Where two headings read alike, the source gives them in different places.

What was measured:
anandamide transporter = assay: [3H]Anandamide transporter competition assay; type: cell-based; conditions: human CCF-STG1 astrocytoma cells, 10 nM [3H]anandamide
Procedure: Human CCF-STG1 astrocytoma cells (American Type Culture collection) were grown in RPMI1640 culture medium containing 2 mM L-glutamine, 4.5 g/L glucose, 10 mM HEPES, and 1.0 mM sodium pyruvate, 10% FBS, cultures at 37° C. with 5% CO2. For standard competition assays, confluent cells grown in 24-well plates were rinsed and preincubated for 10 min at 37° C. in assay buffer (Hank's Balanced Salt Solution containing 0.1% DMSO, 10 mM HEPES) plus test compounds (at their final concentrations of 0.01-100 μM). After having discarded the preincubation media, the cells were incubated for 4 min in 0.2 ml assay buffer containing 10 nM [^3H] anandamide (137.6 Ci/mmol, New England Nuclear) plus test compounds. Reactions were stopped by removing the incubation media and rinsing the cells three times with 0.5 ml of ice-cold HBSS buffer containing 0.1% fatty acid-free Bovine Serum Albumin (sigma). Radioactive material in Triton X-100 cell extracts was measured by liquid scintillation counting. A minimum of three independent experiments conducted in six replicates was used to define the concentration needed to produce half-maximal inhibition (IC50) for each compound. IC50 values were obtained by nonlinear regression fitting of the data, using the PRIZM software package. Data are expressed as mean±SEM.

Mag-lipase = target: T1, Mag-lipase (Rattus norvegicus, UniProt Q8R431); assay: Inhibition of MAG-lipase: 2-AG metabolism to arachidonic acid; type: biochemical; conditions: 30 nmoles compound with 30 nmoles 2-AG, 30 μg enzyme, 300 μL, 20 min
T1 construct: supernatant from final spin in the anandamide amidase preparation; from tissue; host or cells: supernatant (soluble fraction) of the anandamide amidase preparation, rat brain by the cited procedure
T1 sequence (Q8R431 1-303): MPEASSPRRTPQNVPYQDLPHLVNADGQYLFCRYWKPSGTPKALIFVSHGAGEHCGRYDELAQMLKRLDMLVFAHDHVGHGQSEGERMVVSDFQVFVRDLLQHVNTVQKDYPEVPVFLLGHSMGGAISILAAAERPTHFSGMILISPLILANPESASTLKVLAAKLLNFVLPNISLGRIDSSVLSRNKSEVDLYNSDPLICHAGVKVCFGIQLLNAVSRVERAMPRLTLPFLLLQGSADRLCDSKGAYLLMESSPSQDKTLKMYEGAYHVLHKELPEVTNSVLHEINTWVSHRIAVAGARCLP
Procedure: All compound solutions were made to a concentration of 10 mM in DMSO. Three tests were performed on each compound: hydrolysis, to determine the stability of the compound in assay conditions without the enzyme present; metabolism, to determine the stability of the compound with the enzyme present; and inhibition of 2-Arachidonoyl glycerol (native substrate) metabolism to arachidonic acid.
(§1) The inhibition of 2-AG metabolism was measured by mixing 30 nmoles of the compound with 30 nmoles 2-AG, and 30 μg enzyme preparation in TME buffer (final volume of 300 μL). Again the reaction mixture was treated in the same manner as described above and the concentrations of 2-AG and AA were calculated using external standards. Percent inhibition was calculated using the following equation: % Inhib.=(AA20-AA0)i/(AA20-AA0)s where (AA20-AA0)i is the amount of arachidonic acid formed over 20 minutes from 2-AG with the inhibitor present and (AA20-AA0)s is the amount of arachidonic acid formed over 20 minutes from 2-AG when the inhibitor is not present. […] The reaction mixtures were treated as described above and the amount of AA formed was calculated. The software package GraphPad Prism was utilized to calculate IC50 and Ki. HPLC Conditions:
Chromatographic separation was achieved using an Ultrasphere ODS Pre-column (4.6×45 mm) from Beckman. Hardware consisted of a Waters Millennium HPLC system with a 20 μL injection loop. The mobile phase consisted of 8.5% o-phosphoric acid:acetonitrile (3:7), run isocratically at a rate of 1 mL/min and detection at 204 nm. The total run time was 8 minutes with 2-AG eluting at 3.0 minutes and AA at 6.0 minutes.

CB2 receptor = target: T2, CB2 receptor (Mus musculus, UniProt P47936); assay: CB2 receptor binding, [3H]CP-55,940 displacement; conditions: mouse spleen membranes
T2 construct: membranes were prepared from frozen mouse spleen; from tissue; host or cells: mouse spleen
Procedure: (§2) The treated membranes were subsequently used in the binding assay described below. Approximately 30 μg of membranes were incubated in silanized 96-well microtiter plate with TME containing 0.1% essentially fatty acid-free bovine serum albumin (BSA), 0.8 nM [^3H] CP-55,940, and various concentrations of test materials in a final volume of 200 μL. The assays were incubated for 1 hour at 30° C. and then immediately filtered using Packard Filtermate 196 harvester and Whatman GF/C filterplates and washed with wash buffer (TME) containing 0.5% BSA. Radioactivity was detected using MicroScint 20 scintillation cocktail added directly to the dried filterplates, and the filterplates were counted using a Packard Instruments Top-Count. Nonspecific binding was assessed using 100 nM CP-55,940. Data collected from three independent experiments performed with duplicate determinations was normalized between 100% and 0% specific binding for [^3H] CP-55,940, determined using buffer and 100 nM CP-55,940. The normalized data was analyzed using a 4-parameter nonlinear logistic equation to yield IC50 values.
For the CB2 receptor binding studies, membranes were prepared from frozen mouse spleen essentially according to the procedure of P. R. Dodd et al, A Rapid Method for Preparing Synaptosomes: Comparison with Alternative Procedures, Brain Res., 226, 107-118 (1981) which is incorporated by reference herein. Silanized centrifuge tubes were used throughout to minimize receptor loss due to adsorption. The CB2 binding assay was conducted in the same manner as for the CB1 binding assay. The binding affinities (Ki) were also expressed in nanomoles (nM).

CB1 cannabinoid receptor = target: T3, CB1 cannabinoid receptor (Rattus norvegicus, UniProt P20272); assay: CB1 receptor binding, [3H]CP-55,940 displacement; conditions: rat forebrain membranes
T3 construct: membranes were prepared from rat forebrain membranes; from tissue; host or cells: rat forebrain
Procedure: Some inventive analogs were tested for CB2 receptor binding affinity and for CB1 receptor affinity (to determine selectivity). […] The lower the Ki value, the higher the binding affinity. […] For the CB1 receptor binding studies, membranes were prepared from rat forebrain membranes according to the procedure of P. R. Dodd et al, A Rapid Method for Preparing Synaptosomes: Comparison with Alternative Procedures, Brain Res., 107-118 (1981). The binding of the novel analogues to the CB1 cannabinoid receptor was assessed as described in W. A. Devane et al, Determination and Characterization of a Cannabinoid Receptor in a Rat Brain, Mol. Pharmacol., 34, 605-613 (1988) and A. Charalambous et al, 5′-azido Δ^8-THC: A Novel Photoaffinity Label for the Cannabinoid Receptor, J. Med. Chem., 35, 3076-3079 (1992) with the following changes. The above articles are incorporated by reference herein.
Membranes, previously frozen at −80° C., were thawed on ice. To the stirred suspension was added three volumes of TME (25 mM Tris-HCl buffer, 5 mM MgCl2 and 1 mM EDTA) at a pH 7.4. The suspension was incubated at 4° C. for 30 min. At the end of the incubation, the membranes were pelleted and washed three times with TME.
as §2

[1] = target: T4, FAAH (fatty acid amide hydrolase) (Rattus norvegicus, UniProt P97612); assay: FAAH screening: inhibition of anandamide metabolism to arachidonic acid; type: biochemical; conditions: 25 nmoles compound with 25 nmoles AEA, 75 μg enzyme, 250 μL, 15 min
T4 construct: Anandamide Amidase Activity in Rat Brain Microsomes; from tissue; host or cells: rat brain microsomes (by the cited procedure)
T4 sequence (P97612 1-579): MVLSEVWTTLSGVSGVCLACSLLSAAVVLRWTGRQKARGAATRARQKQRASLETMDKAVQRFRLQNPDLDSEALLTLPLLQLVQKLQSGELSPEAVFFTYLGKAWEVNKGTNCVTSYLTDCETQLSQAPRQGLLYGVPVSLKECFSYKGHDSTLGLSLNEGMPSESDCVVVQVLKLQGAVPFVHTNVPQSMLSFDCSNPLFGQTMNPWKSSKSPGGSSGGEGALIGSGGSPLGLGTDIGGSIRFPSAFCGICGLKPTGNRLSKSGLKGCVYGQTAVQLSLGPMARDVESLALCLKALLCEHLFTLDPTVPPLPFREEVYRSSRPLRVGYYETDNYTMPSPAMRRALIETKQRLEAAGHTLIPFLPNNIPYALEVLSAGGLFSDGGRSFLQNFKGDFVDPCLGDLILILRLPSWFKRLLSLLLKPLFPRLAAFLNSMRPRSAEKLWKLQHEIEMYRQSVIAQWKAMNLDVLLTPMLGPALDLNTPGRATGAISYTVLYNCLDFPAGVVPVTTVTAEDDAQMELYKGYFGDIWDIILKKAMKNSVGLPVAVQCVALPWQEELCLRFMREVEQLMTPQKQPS
Procedure: The FAAH (fatty acid amide hydrolase) enzyme preparation was obtained according to the procedure of Lang and Makriyannis et al High Performance Liquid Chromatographic Determination of Anandamide Amidase Activity in Rat Brain Microsomes, Analytical Biochemistry (238): 40-45, 1996.
All compound solutions were made to a concentration of 10 mM in DMSO. Three tests were performed on each compound: hydrolysis, to determine the stability of the compound in assay conditions without the enzyme present; metabolism, to determine the stability of the compound with the enzyme present; and inhibition of anandamide (native substrate) metabolism to arachidonic acid.
as §1, with “Again” for “The inhibition of 2-AG metabolism was measured by mixing 30 nmoles of the compound with 30 nmoles 2-AG, and 30 μg enzyme preparation in TME buffer (final volume of 300 μL). Again”, “AEA” for “2-AG”, “Inhib.=(AA15-AA0)i/(AA15-AA0)s” for “Inhib.=(AA20-AA0)i/(AA20-AA0)s”, “(AA15-AA0)c” for “(AA20-AA0)i”, “15” for “20”, “(AA15-AA0)s” for “(AA20-AA0)s”
Chromatographic separation was achieved using an Ultrasphere ODS Pre-column (4.6×45 mm) from Beckman. Hardware consisted of a Waters Millennium HPLC system with a 20 μL injection loop. The mobile phase consisted of 8.5% o-phosphoric acid:acetonitrile (3:7), run isocratically at a rate of 1 mL/min and detection at 204 nm. The total run time was 8 minutes with AEA eluting at 2.2 minutes and AA at 6.0 minutes.

[2] = with PMSF (second value of cell), read-out: Ki CB1 (nM) (o/w PMSF)
[3] = without PMSF (first value of cell), read-out: Ki CB1 (nM) (o/w PMSF)
[4] = with PMSF (second value of cell), read-out: Ki CB1 (nM) (o/w PMSFQ)
[5] = without PMSF (first value of cell), read-out: Ki CB1 (nM) (o/w PMSFQ)

T2 sequence (P47936 whole entry): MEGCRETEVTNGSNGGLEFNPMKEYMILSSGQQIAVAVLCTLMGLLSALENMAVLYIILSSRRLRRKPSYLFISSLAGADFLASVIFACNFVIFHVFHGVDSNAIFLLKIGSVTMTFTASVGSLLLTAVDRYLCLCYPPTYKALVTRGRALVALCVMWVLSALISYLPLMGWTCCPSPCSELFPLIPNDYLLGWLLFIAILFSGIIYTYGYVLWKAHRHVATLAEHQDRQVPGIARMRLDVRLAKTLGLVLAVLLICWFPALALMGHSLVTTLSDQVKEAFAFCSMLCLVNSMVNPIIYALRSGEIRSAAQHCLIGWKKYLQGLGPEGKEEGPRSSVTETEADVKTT
T3 sequence (P20272 whole entry): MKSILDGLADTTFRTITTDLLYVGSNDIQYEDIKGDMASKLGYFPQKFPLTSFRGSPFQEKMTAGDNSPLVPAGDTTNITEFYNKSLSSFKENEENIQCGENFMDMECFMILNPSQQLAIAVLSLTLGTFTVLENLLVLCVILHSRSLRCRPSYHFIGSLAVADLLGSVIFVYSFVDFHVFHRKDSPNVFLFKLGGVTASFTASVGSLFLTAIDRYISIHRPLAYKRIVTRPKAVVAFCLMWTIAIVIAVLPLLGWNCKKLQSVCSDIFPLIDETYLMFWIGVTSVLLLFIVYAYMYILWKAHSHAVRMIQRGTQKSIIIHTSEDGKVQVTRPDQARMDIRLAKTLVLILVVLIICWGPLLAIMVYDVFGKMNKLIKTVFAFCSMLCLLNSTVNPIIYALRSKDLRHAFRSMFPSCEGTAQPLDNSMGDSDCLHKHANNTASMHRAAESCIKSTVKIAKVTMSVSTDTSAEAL

Structure (SMILES) | IC50 (anandamide transporter; read-out: IC50 (AT inhib.)) | Mag-Lipase % Inhibition (Mag-lipase) | Ki (CB2 receptor) | Ki (CB1 cannabinoid receptor; [2]) | Ki (CB1 cannabinoid receptor; [3]) | IC50 (anandamide transporter; read-out: IC50 AT inhibition) | FAAH % Inhibition [1] | Ki (CB1 cannabinoid receptor; [4]) | Ki (CB1 cannabinoid receptor; [5])
CCCCC/C=C\C/C=C\C/C=C\C/C=C\CCCCOC(=O)NC1=NCCS1 [Compound B10] | 8.6 µM | 34.0% |  |  |  |  |  |  | 
CCCCCCCCC=CCCCCCCCCOC(=O)NCC(C)O (centres unmarked) [Compound B13] | 5.92 µM | 13.1% | 2.6 µM | 2240 nM | 4750 nM |  |  |  | 
O=C(CCC/C=C\C/C=C\C/C=C\C/C=C\CCCCCO)NC1CC1 [Compound A17] |  |  | 0.0387 µM |  |  | 35.3 µM | 61% | 3.9 nM | 209 nM
CCCCCN(C)C/C=C\C/C=C\C/C=C\C/C=C\CCCCNC(=O)c1ccc(O)cc1 [Compound A26] |  | 9.8% | 2.91 µM |  |  | 5.4 µM |  | 2150 nM | 4720 nM
[N-]=[N+]=NCCCCC/C=C\C/C=C\C/C=C\C/C=C\CCCC(=O)Nc1ccc(O)cc1 [Compound A13] |  |  | 0.335 µM |  |  | 0.7 µM | 33% | 531 nM | 3830 nM
CCCCCC=CCC=CCC=CCC=CCCCCOC(=O)NCC(C)O (centres unmarked) [Compound B4] | 0.4 µM |  | 0.254 µM | 320 nM | 338 nM |  | 7% |  | 
[N-]=[N+]=NCCCC/C=C\C/C=C\C/C=C\C/C=C\CCCC(=O)NC1=NCCS1 [Compound A8] |  |  | 0.513 µM |  |  | 2.3 µM | 49% | 106 nM | 1300 nM
[N-]=[N+]=NCCCCC/C=C\C/C=C\C/C=C\C/C=C\CCCC(=O)NC1=NCCS1 [Compound A14] |  |  | 0.243 µM |  |  | 1.2 µM | 48% | 144 nM | 428 nM
CCCCC/C=C\C/C=C\C/C=C\C/C=C\CCCCOC(=O)Nc1ccc(O)cc1 [Compound B9] | 6.6 µM |  | 0.533 µM | 3300 nM | 5390 nM |  | 27.3% |  | 
CCCCC/C=C\C/C=C\C/C=C\C/C=C\CCCCOC(=O)N[C@H](C)CO [Compound B1] | 7.1 µM |  | 5.07 µM | 1440 nM | 1330 nM |  | 14.7% |  | 
